In ChEMBL document CHEMBL1201862, “PubChem BioAssay data set” (2004):
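How tested: cells in 96-well plates exposed to compound for 48 hours at five concentrations. The concentration for 50% growth inhibition is given as GI50.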 The source made the active and inactive calls. Cut-off read from the data, not from the text of the source: active = GI50 up to about 1.1 µM and inactive = higher.

Legend:
Assay in all cases: growth of human tumour cells (NCI), 48 h
ACHN = test system: ACHN
SK-MEL-28 = test system: SK-MEL-28
786-0 = test system: 786-0
SK-MEL-2 = test system: SK-MEL-2
COLO 205 = test system: COLO 205
M14 = test system: M14
OVCAR-3 = test system: OVCAR-3
KM12 = test system: KM12
SR = test system: SR
IGROV-1 = test system: IGROV-1
NCI-H460 = test system: NCI-H460
OVCAR-4 = test system: OVCAR-4
RXF 393 = test system: RXF 393
CAKI-1 = test system: CAKI-1
A498 = test system: A498
PC-3 = test system: PC-3
SNB-75 = test system: SNB-75
MDA-MB-435 = test system: MDA-MB-435
NCI/ADR-RES = test system: NCI/ADR-RES

Measured: GI50

CNc1ccc(/C=C2\C=Cc3ccccc32)cc1
inactive: ACHN 20.3 µM | SK-MEL-28 88.5 µM | 786-0 31.5 µM | SK-MEL-2 18.8 µM | COLO 205 18.4 µM | M14 16.3 µM | OVCAR-3 21.2 µM | KM12 12.7 µM | SR 53.2 µM | IGROV-1 24.2 µM | NCI-H460 16.6 µM | OVCAR-4 26.8 µM | RXF 393 20.8 µM | CAKI-1 30.1 µM | A498 28.1 µM

N#CCCC1(CCC#N)CCCCCCC(CCC#N)(CCC#N)C(=O)C1=O
inactive: ACHN > 100 µM | SK-MEL-28 > 100 µM | PC-3 > 100 µM | 786-0 > 100 µM | SK-MEL-2 > 100 µM | COLO 205 36.8 µM | M14 > 100 µM | OVCAR-3 > 100 µM | SNB-75 > 100 µM | KM12 > 100 µM | SR > 100 µM | IGROV-1 > 100 µM | NCI-H460 > 100 µM | OVCAR-4 > 100 µM | RXF 393 > 100 µM | MDA-MB-435 > 100 µM | CAKI-1 > 100 µM | A498 50 µM | NCI/ADR-RES > 100 µM

N#CCC(=O)N/N=C(\C(=O)Nc1ccc(Cl)c(Cl)c1)C1CN(c2ccccc2)N=C1N (stereo unspecified)
inactive: ACHN > 100 µM | SK-MEL-28 > 100 µM | 786-0 > 100 µM | SK-MEL-2 > 100 µM | COLO 205 > 100 µM | M14 > 100 µM | OVCAR-3 > 100 µM | SNB-75 > 100 µM | KM12 > 100 µM | SR > 100 µM | IGROV-1 > 100 µM | NCI-H460 > 100 µM | OVCAR-4 > 100 µM | RXF 393 > 100 µM | A498 > 100 µM

Cc1cc(=O)oc2c(C)c(OCCCOc3ccc4c(C)cc(=O)oc4c3C)ccc12
inactive: SK-MEL-28 > 100 µM | 786-0 > 100 µM | SK-MEL-2 > 100 µM | M14 > 100 µM | OVCAR-3 > 100 µM | KM12 > 100 µM | SR > 100 µM | IGROV-1 > 100 µM | NCI-H460 > 100 µM | CAKI-1 > 100 µM | A498 > 100 µM

Cc1ccccc1NC(=O)C(=O)C(C#N)c1ccccc1C (stereo unspecified)
inactive: ACHN > 100 µM | SK-MEL-28 > 100 µM | 786-0 > 100 µM | SK-MEL-2 > 100 µM | COLO 205 46.8 µM | M14 > 100 µM | OVCAR-3 > 100 µM | SNB-75 > 100 µM | KM12 > 100 µM | SR > 100 µM | IGROV-1 > 100 µM | NCI-H460 38.2 µM | RXF 393 > 100 µM | CAKI-1 > 100 µM | A498 > 100 µM

Cc1c2c(cc3c(=O)ccn(CCN(C)C)c13)c(=O)ccn2CCN(C)C
inactive: ACHN 5.4 µM | SK-MEL-28 20.4 µM | 786-0 4.13 µM | SK-MEL-2 21 µM | COLO 205 11.5 µM | M14 12.5 µM | OVCAR-3 14.2 µM | SNB-75 11.9 µM | KM12 3.08 µM | SR 10.6 µM | IGROV-1 12.4 µM | NCI-H460 3.69 µM | OVCAR-4 4.4 µM | RXF 393 14.2 µM | CAKI-1 16.6 µM | A498 21.4 µM

FC(F)(F)C1(Br)C(c2ccccc2)=C1c1ccccc1
inactive: ACHN 16.8 µM | SK-MEL-28 18.9 µM | 786-0 15.9 µM | SK-MEL-2 15.9 µM | COLO 205 18.8 µM | M14 17.1 µM | OVCAR-3 15.7 µM | SNB-75 29.1 µM | KM12 15.8 µM | SR 5.11 µM | IGROV-1 24.7 µM | NCI-H460 24.7 µM | OVCAR-4 18.8 µM | RXF 393 15.5 µM | CAKI-1 23.8 µM

O=S1OC2(c3ccccc3-c3ccccc32)c2ccccc21 (stereo unspecified)
inactive: ACHN > 100 µM | SK-MEL-28 > 100 µM | 786-0 > 100 µM | COLO 205 > 100 µM | M14 > 100 µM | OVCAR-3 > 100 µM | SNB-75 > 100 µM | KM12 > 100 µM | SR > 100 µM | IGROV-1 > 100 µM | NCI-H460 > 100 µM | OVCAR-4 > 100 µM | RXF 393 53 µM | A498 > 100 µM

CCOC(=O)c1csc(CCCCCCc2nc(C(=O)OCC)cs2)n1
inactive: ACHN > 84.9 µM | SK-MEL-28 > 38.3 µM | 786-0 33.2 µM | SK-MEL-2 97.5 µM | COLO 205 > 52.6 µM | M14 > 100 µM | OVCAR-3 99.5 µM | SNB-75 21.1 µM | KM12 > 100 µM | SR > 100 µM | IGROV-1 > 100 µM | NCI-H460 29.7 µM | OVCAR-4 > 100 µM | RXF 393 31.6 µM | CAKI-1 > 88.7 µM | A498 > 100 µM

CC(C)(C)OC(=O)C1=C(O)C(C(=O)OC(C)(C)C)C23CCCCC12C(C(=O)OC(C)(C)C)C(O)=C3C(=O)OC(C)(C)C (stereo unspecified)
inactive: ACHN > 100 µM | 786-0 > 100 µM | SK-MEL-2 > 100 µM | COLO 205 > 100 µM | M14 > 100 µM | OVCAR-3 > 100 µM | SNB-75 > 100 µM | KM12 > 100 µM | SR > 100 µM | IGROV-1 > 100 µM | NCI-H460 > 100 µM | OVCAR-4 > 100 µM | RXF 393 > 100 µM | CAKI-1 > 100 µM | A498 > 100 µM

Clc1ccc2cccc3c2c1C1OC3c2ccccc21 (stereo unspecified)
inactive: ACHN > 100 µM | SK-MEL-28 > 100 µM | 786-0 > 100 µM | SK-MEL-2 > 100 µM | COLO 205 > 100 µM | M14 > 100 µM | OVCAR-3 > 100 µM | SNB-75 99.8 µM | KM12 71.4 µM | SR > 100 µM | IGROV-1 > 100 µM | RXF 393 55.5 µM | A498 > 100 µM

C=CCn1c2c(sc1=S)C(S)NC=N2 (stereo unspecified)
inactive: ACHN 71.3 µM | SK-MEL-28 > 100 µM | 786-0 > 100 µM | SK-MEL-2 > 100 µM | COLO 205 > 100 µM | M14 > 100 µM | OVCAR-3 94.2 µM | SNB-75 > 100 µM | KM12 > 100 µM | SR 91.8 µM | IGROV-1 88.5 µM | NCI-H460 > 100 µM | OVCAR-4 > 100 µM | RXF 393 > 100 µM | CAKI-1 > 100 µM | A498 30.8 µM

C=C1C(=O)OC2/C=C(\C=O)CC/C=C(\C)C(O)C[C@@H]12 (stereo partly specified)
inactive: ACHN 7.35 µM | SK-MEL-28 4.42 µM | 786-0 2.85 µM | SK-MEL-2 10.5 µM | COLO 205 3.94 µM | M14 3.36 µM | OVCAR-3 9.46 µM | SNB-75 15.1 µM | KM12 5.77 µM | SR 2.8 µM | IGROV-1 17.5 µM | NCI-H460 13.3 µM | OVCAR-4 14.1 µM | RXF 393 2.84 µM | CAKI-1 > 10 µM | A498 10.2 µM
